# Tests used:
# [1] = molecular target: T1, human NK3 receptor (Homo sapiens, UniProt P29371); assay: NK3 receptor binding assay (SPA competition binding, 125I-NKB); settings: read-out: Affinity (Ki/nM)
# T1 construct: expressed in transfected cells
# T1 sequence (P29371 1-465): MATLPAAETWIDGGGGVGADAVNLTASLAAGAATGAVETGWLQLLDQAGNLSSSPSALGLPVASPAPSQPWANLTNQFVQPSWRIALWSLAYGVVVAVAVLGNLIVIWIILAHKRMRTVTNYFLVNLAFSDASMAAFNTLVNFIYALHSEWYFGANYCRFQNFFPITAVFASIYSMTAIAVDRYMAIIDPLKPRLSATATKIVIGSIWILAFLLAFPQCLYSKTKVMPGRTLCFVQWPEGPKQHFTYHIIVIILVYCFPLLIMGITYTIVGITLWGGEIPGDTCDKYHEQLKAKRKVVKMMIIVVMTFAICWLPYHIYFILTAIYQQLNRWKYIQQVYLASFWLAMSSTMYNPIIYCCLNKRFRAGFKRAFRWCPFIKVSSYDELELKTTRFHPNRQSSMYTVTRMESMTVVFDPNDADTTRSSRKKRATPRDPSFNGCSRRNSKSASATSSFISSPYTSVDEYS
# Method: Membrane preparation: BHK cells stably expressing the human NK3 receptor were seeded in harvesting plates in Dulbeccos MEM containing GlutaMax (862 mg/l), 1 mM sodium pyruvate, 10% fetal calf serum, 1% Pen/Strep, 1 mg/ml G418 and were grown at 34° C. in a humidified atmosphere containing 10% CO2. To increase receptor expression, 10 μM trichotatin A was added to the media 24 hours before harvest of the cells at a confluency of app 90%. Prior to the harvesting, the cells were washed twice with PBS without Mg^2+ og Ca^2+ and subsequently scrapped of in 10 ml PBS pr harvesting plate. The cells suspension were centrifuged at 1500×G in three minutes before resuspension in 15 mM Tris-HCl pH 7.5 buffer containing 2 mM MgCl2; 0.3 mM EDTA and 1 mM EGTA (buffer A). The cell suspension was homogenised and subsequently centrifuged at 40000×G in 30 minutes. The membrane-pellet was resuspended in buffer A containing 250 mM sucrose, aliquoted and stored at −80° C.
# Affinity assay description: The assay was performed as a SPA-based competition-binding assay in a 50 mM Tris pH 7.4 assay buffer containing 120 mM NaCl, 3 mM MnCl2, 40 μg/ml bacitracin, 2 μg/ml Chymostatin, 1 μg/ml Phosphoramidon and 4 μg/ml Leupeptin. […] The assay plate was subsequently under agitation incubated for 90 min at RT.
# [2] = cited from earlier work
SMILES,Ki [1] [nM],other results
"Cc1c(C(=O)N[C@H](c2cccc(F)c2)C2CCC2)c2cccc(F)c2c(=O)n1[C@H]1CCOC1 [Example 4r, 8-Fluoro-3-methyl-1-oxo-2-(S)-tetrahydro-furan-3-yl-1,2-dihydro-isoquinoline-4-carboxylic acid [(S)-cyclobutyl-(3-fluoro-phenyl)-methyl]-amide]",170,–
"Cc1c(C(=O)N[C@H](c2cccc(F)c2)C2CC2)c2cccc(F)c2c(=O)n1[C@@H]1CCNC1 [Example 5g, 8-Fluoro-3-methyl-1-oxo-2-(R)-1-pyrrolidin-3-yl-1,2-dihydro-isoquinoline-4-carboxylic acid [(S)-cyclopropyl-(3-fluoro-phenyl)-methyl]-amide]",180,–
"CC(=O)N(C)C1(c2ccccc2)CCN(CCC[C@]2(c3ccc(Cl)c(Cl)c3)CCCN(C(=O)c3ccccc3)C2)CC1 [Osanetant, osanetant]",–,effect in clinical trials versus placebo ([2]; in particular on positive symptoms of psychosis): superior to placebo
"CC[C@H](NC(=O)c1c(O)c(-c2ccccc2)nc2ccccc12)c1ccccc1 [Talnetant, talnetant]",–,effect on cognitive behaviour of schizophrenics in clinical trials ([2]; in vivo): ameliorate the cognitive behaviour of schizophrenics

# From patent US8242134B2, “Isoquinolinone derivatives as NK3 antagonists” (H. Lundbeck A/S, priority 2008, dated 2012)
